# Reference: patent US10183942B2, “JAK kinase inhibitor compounds for treatment of respiratory disease” (THERAVANCE BIOPHARMA R&D IP, LLC, priority 2015, dated 2019)
# Experiments:
# [1] = target: JAK1 (Homo sapiens (Human), UniProt P23458)
# [2] = test system: IL-13 induced pSTAT6 induction in lung tissue; assay: Murine model of IL-13 induced pSTAT6 induction in lung tissue; assay type: in vivo; details: mouse lung; for inhibition of STAT6 phosphorylation in the pharmacodynamic assay: IL-13 challenge 4 h after dose; for lung concentration smaller than that of the corresponding compound of the invention by a factor: pharmacodynamic assay, C-1 vs 1, C-2 vs 7, C-3 vs 13, C-4 vs 6
# Description: 11-13 is an important cytokine underlying the pathophysiology of asthma (Kudlacz et al. Eur. J. Pharmacol, 2008, 582, 154-161). IL-13 binds to cell surface receptors activating members of the Janus family of kinases (JAK) which then phosphorylate STAT6 and subsequently activates further transcription pathways. In the described model, a dose of IL-13 was delivered locally into the lungs of mice to induce the phosphorylation of STAT6 (pSTAT6) which is then measured as the endpoint.
# Adult balb/c mice from Harlan were used in the assay. On the day of study, animals were lightly anesthetized with isoflurane and administered either vehicle or test compound (0.5 mg/mL, 50 μL total volume over several breaths) via oral aspiration. Animals were placed in lateral recumbency post dose and monitored for full recovery from anesthesia before being returned to their home cage. Four hours later, animals were once again briefly anesthetized and challenged with either vehicle or IL-13 ([…] total dose delivered, 50 μL total volume) via oral aspiration before being monitored for recovery from anesthesia and returned to their home cage. One hour after vehicle or IL-13 administration, lungs were collected for both pSTAT6 detection using an anti-pSTAT6 ELISA (rabbit mAb capture/coating antibody; mouse mAb detection/report antibody: anti-pSTAT6-pY641; secondary antibody: anti-mouse IgG-HRP) and analyzed for total drug concentration as described above in Assay 4.
# Selected compounds of the invention were tested in the assay. Activity in the model is evidenced by a decrease in the level of pSTAT6 present in the lungs of treated animals at 5 hours compared to the vehicle treated, IL-13 challenged control animals. The difference between the control animals which were vehicle-treated, IL-13 challenged and the control animals which were vehicle-treated, vehicle challenged dictated the 0% and 100% inhibitory effect, respectively, in any given experiment.
# [3] = Pharmacokinetics in plasma and lung in mouse; assay type: in vivo; details: oral aspiration 0.2 mg/mL 50 uL, lung AUC / plasma AUC
# Description: Plasma and lung levels of test compounds and ratios thereof were determined in the following manner. BALB/c mice from Charles River Laboratories were used in the assay. Test compounds were individually formulated in 20% propylene glycol in pH 4 citrate buffer at a concentration of 0.2 mg/mL and 50 uL of the dosing solution was introduced into the trachea of a mouse by oral aspiration. At various time points (typically 0.167, 2, 6, 24 hr) post dosing, blood samples were removed via cardiac puncture and intact lungs were excised from the mice. Blood samples were centrifuged (Eppendorf centrifuge, 5804R) for 4 minutes at approximately 12,000 rpm at 4° C. to collect plasma. Lungs were padded dry, weighed, and homogenized at a dilution of 1:3 in sterile water. Plasma and lung levels of test compound were determined by LC-MS analysis against analytical standards constructed into a standard curve in the test matrix. A lung to plasma ratio was determined as the ratio of the lung AUC in μg hr/g to the plasma AUC in […], where AUC is conventionally defined as the area under the curve of test compound concentration vs. time.
# [4] = test system: interleukin-13 induced STAT6 phosphorylation in BEAS-2B human lung epithelial cells; assay: Cellular JAKI potency assay (AlphaScreen, BEAS-2B); assay type: cell-based; details: C-1 vs 1, C-2 vs 7, C-3 vs 13, C-4 vs 6
# Description: The AlphaScreen JAKI cellular potency assay was carried out by measuring interleukin-13 (IL-13, R&D Systems) induced STAT6 phosphorylation in BEAS-2B human lung epithelial cells (ATCC). The anti-STAT6 antibody (Cell Signaling Technologies) was conjugated to AlphaScreen acceptor beads (Perkin Elmer), while the anti-pSTAT6 (pTyr641) antibody (Cell Signaling Technologies) was biotinylated using EZ-Link Sulfo-NHS-Biotin (Thermo Scientific).
# BEAS-2B cells were grown at 37° C. in a 5% CO2 humidified incubator in 50% DMEM/50% F-12 medium (Life Technologies) supplemented with 10% FBS (Hyclone), 100 U/mL penicillin, 100 μg/mL streptomycin (Life Technologies), and 2 mM GlutaMAX (Life Technologies). On day 1 of the assay, cells were seeded at a 7,500 cells/well density in white poly-D-lysine-coated 384-well plates (Corning) with 25 μL medium, and were allowed to adhere overnight in the incubator. On day 2 of the assay, the medium was removed and replaced with 12 μL of assay buffer (Hank's Balanced Salt Solution/HBSS, 25 mM HEPES, and 1 mg/ml bovine serum albumin/BSA) containing dose-responses of test compounds. Compounds were serially diluted in DMSO and then diluted another 1000-fold in media to bring the final DMSO concentration to 0.1%. Cells were incubated with test compounds at 37° C. for 1 h, and followed by the addition of 12 μl of pre-warmed IL-13 (80 ng/ml in assay buffer) for stimulation. After incubating at 37° C. for 30 min, the assay buffer (containing compound and IL-13) was removed, and 10 μl of cell lysis buffer (25 mM HEPES, 0.1% SDS, 1% NP-40, 5 mM MgCl2, 1.3 mM EDTA, 1 mM EGTA, and supplement with Complete Ultra mini protease inhibitors and PhosSTOP from Roche Diagnostics). The plates were shaken at ambient temperature for 30 min before the addition of detection reagents. […] After a minimum of 2 h incubation, the assay plates were read on the EnVision plate reader.
# Results were expressed as the negative logarithm of the IC50 value, pIC50.
# [5] = Dynamic moisture sorption assessment; assay type: physicochemical
# Description: Dynamic moisture sorption (DMS) measurement was performed using a VTI atmospheric microbalance, SGA-100 system (VTI Corp., Hialeah, Fla. 33016). A weighed sample was used and the humidity was lowest possible value (close to 0% RH) at the start of the analysis. The DMS analysis consisted of an initial drying step (˜0% RH) for 120 minutes, followed by two cycles of sorption and desorption with a scan rate of 5% RH/step over the humidity range of 5% RH to 90% RH. The DMS run was performed isothermally at 25° C.
# Sequence of JAK1 (P23458 whole entry): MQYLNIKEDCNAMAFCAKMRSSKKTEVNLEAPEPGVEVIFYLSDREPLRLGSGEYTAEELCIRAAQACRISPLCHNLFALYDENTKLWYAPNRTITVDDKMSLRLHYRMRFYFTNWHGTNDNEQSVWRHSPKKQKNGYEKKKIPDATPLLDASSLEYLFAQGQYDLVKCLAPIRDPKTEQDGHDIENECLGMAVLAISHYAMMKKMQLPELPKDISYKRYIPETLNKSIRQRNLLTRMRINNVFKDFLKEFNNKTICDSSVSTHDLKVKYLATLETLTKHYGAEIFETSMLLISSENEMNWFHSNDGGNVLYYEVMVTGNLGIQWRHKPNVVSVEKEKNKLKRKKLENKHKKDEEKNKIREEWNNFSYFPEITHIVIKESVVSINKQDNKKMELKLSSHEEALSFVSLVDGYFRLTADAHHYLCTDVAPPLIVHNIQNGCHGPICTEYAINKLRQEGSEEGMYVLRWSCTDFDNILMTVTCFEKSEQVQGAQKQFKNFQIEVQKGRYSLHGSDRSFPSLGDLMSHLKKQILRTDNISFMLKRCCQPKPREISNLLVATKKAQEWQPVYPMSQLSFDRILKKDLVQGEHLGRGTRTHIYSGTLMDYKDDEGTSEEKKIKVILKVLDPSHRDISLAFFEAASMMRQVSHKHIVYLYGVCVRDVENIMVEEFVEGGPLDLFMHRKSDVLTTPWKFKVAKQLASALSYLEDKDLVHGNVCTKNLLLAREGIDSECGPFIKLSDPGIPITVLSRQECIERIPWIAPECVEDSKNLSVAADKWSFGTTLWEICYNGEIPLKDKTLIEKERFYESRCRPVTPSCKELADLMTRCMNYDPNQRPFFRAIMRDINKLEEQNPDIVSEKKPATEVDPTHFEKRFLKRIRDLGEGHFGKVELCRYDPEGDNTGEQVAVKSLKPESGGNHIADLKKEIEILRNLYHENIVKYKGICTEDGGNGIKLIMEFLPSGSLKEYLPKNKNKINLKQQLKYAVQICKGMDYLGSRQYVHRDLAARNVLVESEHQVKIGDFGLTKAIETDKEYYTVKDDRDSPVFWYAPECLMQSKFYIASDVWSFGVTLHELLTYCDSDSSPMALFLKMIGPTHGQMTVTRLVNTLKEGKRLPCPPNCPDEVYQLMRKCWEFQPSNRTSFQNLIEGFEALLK
SMILES,Ki [1] [nM],Lung to Plasma ratio Assay 4 [3],other results
CCc1cc(O)c(F)cc1-c1ccc2c(-c3nc4c([nH]3)CCN(C3CN(CCO)C3)C4)n[nH]c2c1 [Example 1-1],< 0.1,–,–
CCc1cc(O)c(F)cc1-c1ccc2c(-c3nc4c([nH]3)CCN(C3CN(CC)C3)C4)n[nH]c2c1 [Example 1-3],< 0.1,–,–
CCc1cc(O)c(F)cc1-c1ccc2c(-c3nc4c([nH]3)CCN(C3CN(CCOC)C3)C4)n[nH]c2c1 [Example 1-6],< 0.1,–,–
CCc1cc(O)c(F)cc1-c1ccc2c(-c3nc4c([nH]3)CCN(C3CN(CCC#N)C3)C4)n[nH]c2c1 [Example 1-8],< 0.1,–,–
CCc1cc(O)c(F)cc1-c1ccc2c(-c3nc4c([nH]3)CCN(C3CN(C5CCS(=O)(=O)C5)C3)C4)n[nH]c2c1 (stereo not shown) [Example 1-15],–,–,inhibition of STAT6 phosphorylation in the pharmacodynamic assay [2]: exceptions
CCc1cc(O)c(F)cc1-c1ccc2c(-c3nc4c([nH]3)CCN(C3CCNCC3)C4)n[nH]c2c1 [Example 2-3],< 0.1,–,–
CCc1cc(O)c(F)cc1-c1ccc2c(-c3nc4c([nH]3)CCN(CCNC3(C#N)CC3)C4)n[nH]c2c1 [Example 3-1],–,–,inhibition of STAT6 phosphorylation in the pharmacodynamic assay [2]: exceptions
CCc1cc(O)c(F)cc1-c1ccc2c(-c3nc4c([nH]3)CCN(CCN(C)CC(C)C)C4)n[nH]c2c1 [Example 3-33],–,A (A denotes a ratio >100),–
"CCc1cc(O)c(F)cc1-c1ccc2c(-c3nc4c([nH]3)CCN(CCNC3CC(OC)C3)C4)n[nH]c2c1 (stereo not shown) [Example 8, 5-Ethyl-2-fluoro-4-(3-(5-(2-((3-methoxycyclobutyl)amino)ethyl)-4,5,6,7-tetrahydro-1H-imidazo[4,5-c]pyridin-2-yl)-1H-indazol-6-yl)phenol]",–,A (A denotes a ratio >100),–
CCc1cc(O)c(F)cc1-c1ccc2c(-c3nc4c([nH]3)CCN(C3CCNC3)C4)n[nH]c2c1 (stereo not shown) [Example 9-1],< 0.1,–,–
"CCc1cc(O)c(F)cc1-c1ccc2c(-c3nc4c([nH]3)CCN(C[C@@H]3CCCN3C)C4)n[nH]c2c1 [Example 11, (S)-5-ethyl-2-fluoro-4-(3-(5-((1-methylpyrrolidin-2-yl)methyl)-4,5,6,7-tetrahydro-1H-imidazo[4,5-c]pyridin-2-yl)-1H-indazol-6-yl)phenol]",–,A (A denotes a ratio >100),–
"CCc1cc(O)c(F)cc1-c1ccc2c(-c3nc4c([nH]3)CCN(C[C@H]3COCCN3)C4)n[nH]c2c1 [Example 13, (S)-5-Ethyl-2-fluoro-4-(3-(5-(morpholin-3-ylmethyl)-4,5,6,7-tetrahydro-1H-imidazo[4,5-c]pyridin-2-yl)-1H-indazol-6-yl)phenol]",–,A (A denotes a ratio >100),–
"CCc1cc(O)c(F)cc1-c1ccc2c(-c3nc4c([nH]3)CCN(C[C@@H]3COCCN3)C4)n[nH]c2c1 [Example 14, (R)-5-Ethyl-2-fluoro-4-(3-(5-(morpholin-3-ylmethyl)-4,5,6,7-tetrahydro-1H-imidazo[4,5-c]pyridin-2-yl)-1H-indazol-6-yl)phenol]",–,A (A denotes a ratio >100),–
CCc1cc(O)c(F)cc1-c1ccc2c(-c3nc4c([nH]3)CCN(CC3CNC3)C4)n[nH]c2c1 [Example 14-7],< 0.1,A (A denotes a ratio >100),–
"CCc1cc(O)c(F)cc1-c1ccc2c(-c3nc4c([nH]3)CCN(CCN3CCC[C@@H]3C)C4)n[nH]c2c1 [Example 15, (S)-5-ethyl-2-fluoro-4-(3-(5-(2-(2-methylpyrrolidin-1-yl)ethyl)-4,5,6,7-tetrahydro-1H-imidazo[4,5-c]pyridin-2-yl)-1H-indazol-6-yl)phenol]",–,A (A denotes a ratio >100),–
"CCc1cc(O)c(F)cc1-c1ccc2c(-c3nc4c([nH]3)CCN(C3CC(C)C3)C4)n[nH]c2c1 (stereo not shown) [Example C-1, 5-Ethyl-2-fluoro-4-(3-(5-(3-methylcyclobutyl)-4,5,6,7-tetrahydro-1H-imidazo[4,5-c]pyridin-2-yl)-1H-indazol-6-yl)phenol]",–,–,lung concentration smaller than that of the corresponding compound of the invention by a factor [2]: 36
CCc1cc(O)c(F)cc1-c1ccc2c(-c3nc4c([nH]3)CCN(CCC(C)C)C4)n[nH]c2c1 [Example C-2],–,–,fold less potent than the corresponding compound of the invention in the BEAS-2B cellular assay [4]: 6 fold; lung concentration smaller than that of the corresponding compound of the invention by a factor [2]: 52
CCc1cc(O)c(F)cc1-c1ccc2c(-c3nc4c([nH]3)CCN(CC3CCCOC3)C4)n[nH]c2c1 (stereo not shown) [Example C-3],–,–,fold less potent than the corresponding compound of the invention in the BEAS-2B cellular assay [4]: 3 fold; lung concentration smaller than that of the corresponding compound of the invention by a factor [2]: 13
CCc1cc(O)c(F)cc1-c1ccc2c(-c3nc4c([nH]3)CCN(C3CCC(C)CC3)C4)n[nH]c2c1 (stereo not shown) [Example C-4],–,–,fold less potent than the corresponding compound of the invention in the BEAS-2B cellular assay [4]: 6 fold; lung concentration smaller than that of the corresponding compound of the invention by a factor [2]: 23
"CCc1cc(O)c(F)cc1-c1ccc2c(-c3nc4c([nH]3)CCN(C3CCN(C)CC3)C4)n[nH]c2c1 [crystalline hydrate, Crystalline hydrate of 5-ethyl-2-fluoro-4-(3-(5-(1-methylpiperidin-4-yl)-4,5,6,7-tetrahydro-1H-imidazo[4,5-c]pyridin-2-yl)-1H-indazol-6-yl)phenol]",–,–,"weight gain in dynamic moisture sorption ([5]; 5% to 90% relative humidity, about 25° C.): less than 0.12%; hygroscopicity ([5]; two cycles of sorption and desorption): non-hygroscopic"
